This assay concerns the target EN PA (Influenza A virus, UniProt P15659). The assay can be described thus: EN PA FRET Inhibition Assay. It is filed as biochemical. Conditions: read-out: Potency.
For `CC(C)(C)c1ccc(-n2cc(O)c(=O)c(C(=O)O)n2)cc1` [Compound 3, 1-(4-tert-butylphenyl)-5-hydroxy-4-oxo-1,4-dihydropyridazine-3-carboxylic acid], the IC50 lay in the range of 100 to 1000 nM.

Turning to `COc1cccc(-n2cc(O)c(=O)c(C(=O)O)n2)c1` [Compound 5], the IC50 fell in the range of 100 to 1000 nM.

As to `CC(C)c1ccccc1-n1cc(O)c(=O)c(C(=O)O)n1` [Compound 8], the IC50 is ≥ 1000 nM.

Take `Cc1cccc(C)c1-n1cc(O)c(=O)c(C(=O)O)n1` [Compound 12]: the IC50 is 100 to 1000 nM.

Consider `COc1ccc(-c2ccccc2)cc1-n1cc(O)c(=O)c(C(=O)O)n1` [Compound 13], for which the IC50 was 100 to 1000 nM.

As to `O=C(O)c1nn(-c2ccccc2OC(F)F)cc(O)c1=O` [Compound 14], the IC50 was ≥ 1000 nM.

Consider `Cc1ccc2cccc(-n3cc(O)c(=O)c(C(=O)O)n3)c2n1` [Compound 15], for which the IC50 lay within 100 to 1000 nM.

As for `CC(C)(C)c1ccccc1-n1cc(O)c(=O)c(C(=O)O)n1` [Compound 16], the IC50 lay within 100 to 1000 nM.

For the molecule `CCCCNS(=O)(=O)c1cccc(-n2cc(O)c(=O)c(C(=O)O)n2)c1` [Compound 22], the IC50 was in the range of 100 to 1000 nM.

On to `CCOc1ccccc1-n1cc(O)c(=O)c(C(=O)O)n1` [Compound 23], for which the IC50 is 100 to 1000 nM.

In the case of `CCCCOc1ccc(-n2cc(O)c(=O)c(C(=O)O)n2)cc1` [Compound 25], the IC50 was ≥ 1000 nM.

As for `COc1cc(OC)cc(-n2cc(O)c(=O)c(C(=O)O)n2)c1` [Compound 26], the IC50 lay within 100 to 1000 nM.

For `O=C(O)c1nn(-c2ccc(C(F)(F)F)cc2)cc(O)c1=O` [Compound 27], the IC50 fell in the range of 100 to 1000 nM.

For the molecule `O=C(O)c1nn(-c2ccc(N3CCCCC3)cc2)cc(O)c1=O` [Compound 28], the IC50 is ≥ 1000 nM.

On to `O=C(O)c1nn(-c2ccccc2CCO)cc(O)c1=O` [Compound 29], for which the IC50 lay in the range of 100 to 1000 nM.

Turning to `O=C(O)c1nn(-c2cccc(OC(F)(F)F)c2)cc(O)c1=O` [Compound 30], the IC50 is ≥ 1000 nM.

Regarding `CS(=O)(=O)c1ccc(-n2cc(O)c(=O)c(C(=O)O)n2)cc1` [Compound 31], the IC50 lay in the range of 100 to 1000 nM.

With `O=C(O)c1nn(-c2ccc3c(c2)OCCO3)cc(O)c1=O` [Compound 32], the IC50 was 100 to 1000 nM.

`O=C(O)c1nn(-c2ccc3cn[nH]c3c2)cc(O)c1=O` [Compound 33]: the IC50 was 100 to 1000 nM.

For the molecule `CCc1ccccc1-c1ccccc1-n1cc(O)c(=O)c(C(=O)O)n1` [Compound 34], the IC50 was in the range of 100 to 1000 nM.

On to `N#Cc1ccc(-c2ccccc2-n2cc(O)c(=O)c(C(=O)O)n2)cc1` [Compound 36], for which the IC50 was in the range of 100 to 1000 nM.

In the case of `CC(C)Cc1ccc(-c2ccccc2-n2cc(O)c(=O)c(C(=O)O)n2)cc1` [Compound 37], the IC50 is 100 to 1000 nM.

On to `Cc1ccccc1-c1ccccc1-n1cc(O)c(=O)c(C(=O)O)n1` [Compound 38], for which the IC50 was in the range of 100 to 1000 nM.

Regarding `CC(C)c1ccccc1-c1ccccc1-n1cc(O)c(=O)c(C(=O)O)n1` [Compound 39], the IC50 lay in the range of 100 to 1000 nM.

Consider `O=C(O)c1nn(-c2ccccc2-c2ccccc2OC(F)(F)F)cc(O)c1=O` [Compound 40], for which the IC50 is 100 to 1000 nM.

For the molecule `O=C(O)c1nn(-c2ccccc2N2CCOCC2)cc(O)c1=O` [Compound 41], the IC50 lay in the range of 100 to 1000 nM.

Regarding `O=C(O)c1nn(-c2ccc3[nH]ncc3c2)cc(O)c1=O` [Compound 42], the IC50 is 100 to 1000 nM.

Take `O=C(O)c1nn(-c2ccc(Oc3ccccc3)cc2)cc(O)c1=O` [Compound 43]: the IC50 fell in the range of 100 to 1000 nM.

Take `CCOC(=O)c1nn(-c2ccccc2S(=O)(=O)c2ccccc2)cc(O)c1=O` [Compound 44]: the IC50 was ≥ 1000 nM.

On to `O=C(O)c1nn(-c2ccccc2N2CCCC2)cc(O)c1=O` [Compound 200, 5-hydroxy-4-oxo-1-(2-(pyrrolidin-1-yl)phenyl)-1,4-dihydropyridazine-3-carboxylic acid], for which the IC50 lay within 100 to 1000 nM.

On to `O=C(O)c1nn(-c2cc(C(F)(F)F)ccc2N2CCCC2)cc(O)c1=O` [Compound 201], for which the IC50 lay in the range of 100 to 1000 nM.

As to `CC1CCN(c2ccccc2-n2cc(O)c(=O)c(C(=O)O)n2)CC1` [Compound 202], the IC50 is 100 to 1000 nM.

With `CN1CCN(c2ccccc2-n2cc(O)c(=O)c(C(=O)O)n2)CC1` [Compound 204], the IC50 was ≥ 1000 nM.

As for `CCN1CCN(c2ccccc2-n2cc(O)c(=O)c(C(=O)O)n2)CC1` [Compound 205], the IC50 was ≥ 1000 nM.

In the case of `CC(C)(C)C1CCN(c2ccccc2-n2cc(O)c(=O)c(C(=O)O)n2)CC1` [Compound 208], the IC50 fell in the range of 100 to 1000 nM.

Consider `CC1(C)CCCN(c2ccccc2-n2cc(O)c(=O)c(C(=O)O)n2)C1` [Compound 209], for which the IC50 is 100 to 1000 nM.

As to `Cc1ccc(C)c(-c2ccccc2-n2cc(O)c(=O)c(C(=O)O)n2)c1` [Compound 300, 1-(2′,5′-dimethylbiphenyl-2-yl)-5-hydroxy-4-oxo-1,4-dihydropyidazine-3-carboxylic acid], the IC50 lay in the range of 100 to 1000 nM.

For `Cc1cc(C)cc(-c2ccccc2-n2cc(O)c(=O)c(C(=O)O)n2)c1` [Compound 301], the IC50 is 100 to 1000 nM.

As for `CC(C)(C)c1ccc(-c2ccccc2-n2cc(O)c(=O)c(C(=O)O)n2)cc1` [Compound 302], the IC50 lay in the range of 100 to 1000 nM.

For the molecule `Cc1ccc(-c2ccccc2-n2cc(O)c(=O)c(C(=O)O)n2)cc1` [Compound 303], the IC50 was 100 to 1000 nM.

For `CC(C)(C)OC(=O)N1CCC(c2ccccc2-n2cc(O)c(=O)c(C(=O)O)n2)CC1` [Compound 304], the IC50 was ≥ 1000 nM.

Take `Cc1cc(F)ccc1-c1ccccc1-n1cc(O)c(=O)c(C(=O)O)n1` [Compound 305]: the IC50 was 100 to 1000 nM.

On to `O=C(O)c1nn(-c2ccccc2-c2ccc(F)cc2)cc(O)c1=O` [Compound 306], for which the IC50 is 100 to 1000 nM.

On to `O=C(O)c1nn(-c2ccccc2-c2ccc(C(F)(F)F)cc2)cc(O)c1=O` [Compound 307], for which the IC50 lay in the range of 100 to 1000 nM.

For the molecule `O=C(O)c1nn(-c2ccccc2C2CCCCC2)cc(O)c1=O` [Compound 308], the IC50 is 100 to 1000 nM.

Take `Cc1cccc(-c2ccccc2-n2cc(O)c(=O)c(C(=O)O)n2)c1C` [Compound 309]: the IC50 is ≥ 1000 nM.

On to `CC(C)Oc1ccccc1-c1ccccc1-n1cc(O)c(=O)c(C(=O)O)n1` [Compound 310], for which the IC50 is 100 to 1000 nM.

Consider `O=C(O)c1nn(-c2ccccc2-c2ccccc2Oc2ccccc2)cc(O)c1=O` [Compound 311], for which the IC50 was < 100 nM.

In the case of `O=C(O)c1nn(-c2ccccc2C2CCNCC2)cc(O)c1=O` [Compound 312], the IC50 is ≥ 1000 nM.

For the molecule `O=C(O)c1nn(-c2ccccc2-c2ccc3cc[nH]c3c2)cc(O)c1=O` [Compound 313], the IC50 was in the range of 100 to 1000 nM.

On to `COc1ccccc1-c1ccccc1-n1cc(O)c(=O)c(C(=O)O)n1` [Compound 315], for which the IC50 was 100 to 1000 nM.

For `O=C(O)c1nn(-c2ccccc2-c2cccc3c2oc2ccccc23)cc(O)c1=O` [Compound 316], the IC50 is 100 to 1000 nM.

For `O=C(O)c1nn(-c2ccccc2-c2ccccc2OC2CCCCC2)cc(O)c1=O` [Compound 317], the IC50 is < 100 nM.

For the molecule `COc1cccc(-c2ccccc2-n2cc(O)c(=O)c(C(=O)O)n2)c1` [Compound 318], the IC50 was 100 to 1000 nM.

Regarding `COc1ccc(Cl)c(-c2ccccc2-n2cc(O)c(=O)c(C(=O)O)n2)c1` [Compound 322], the IC50 was 100 to 1000 nM.

On to `COc1cc(Cl)cc(-c2ccccc2-n2cc(O)c(=O)c(C(=O)O)n2)c1` [Compound 323], for which the IC50 is 100 to 1000 nM.

As for `Cn1ccc2ccc(-c3ccccc3-n3cc(O)c(=O)c(C(=O)O)n3)cc21` [Compound 324], the IC50 was 100 to 1000 nM.

Turning to `CC(C)COc1ccccc1-c1ccccc1-n1cc(O)c(=O)c(C(=O)O)n1` [Compound 325], the IC50 is < 100 nM.

For the molecule `COc1ccccc1CCn1cc(O)c(=O)c(C(=O)O)n1` [Compound 413], the IC50 was < 100 nM.

With `COc1cccc(CCn2cc(O)c(=O)c(C(=O)O)n2)c1` [Compound 414], the IC50 is < 100 nM.

Regarding `COc1ccc(CCn2cc(O)c(=O)c(C(=O)O)n2)cc1` [Compound 415], the IC50 lay in the range of 100 to 1000 nM.

Turning to `COc1ccc(CCn2cc(O)c(=O)c(C(=O)O)n2)cc1OC` [Compound 417], the IC50 lay in the range of 100 to 1000 nM.

Take `O=C(O)c1nn(C2CCc3ccccc3C2=O)cc(O)c1=O` (stereo not shown) [Compound 418]: the IC50 was in the range of 100 to 1000 nM.

Take `O=C(O)c1nn(CC2(c3cc(C(F)(F)F)cc(C(F)(F)F)c3)CCCC2)cc(O)c1=O` [Compound 419]: the IC50 was < 100 nM.

In the case of `CCOC(=O)c1nn(CC2(c3cc(C(F)(F)F)cc(C(F)(F)F)c3)CCCC2)cc(O)c1=O` [Compound 420], the IC50 is 100 to 1000 nM.

Turning to `Cc1cn(C2(Cn3cc(O)c(=O)c(C(=O)O)n3)CCCC2)c2ncccc12` [Compound 425], the IC50 lay within 100 to 1000 nM.

`O=C(NC1CC1)c1nn(CC2(c3cc(C(F)(F)F)cc(C(F)(F)F)c3)CCCC2)cc(O)c1=O` [Compound 508]: the IC50 lay within 100 to 1000 nM.

`CNC(=O)c1nn(-c2ccccc2-c2ccccc2OC(F)(F)F)cc(O)c1=O` [Compound 520]: the IC50 is ≥ 1000 nM.

For the molecule `CNC(=O)c1nn(-c2ccccc2-c2ccc3cc[nH]c3c2)cc(O)c1=O` [Compound 521], the IC50 was ≥ 1000 nM.

Regarding `CNC(=O)c1nn(-c2ccccc2-c2cc(C)ccc2OC(C)C)cc(O)c1=O` [Compound 522], the IC50 was 100 to 1000 nM.

For the molecule `CNC(=O)c1nn(-c2ccccc2N2CCN(C)CC2)cc(O)c1=O` [Compound 600, 1,4-dihydro-5-hydroxy-N-methyl-1-(2-(4-methylpiperazin-1-yl)phenyl)-4-oxopyridazine-3-carboxamide], the IC50 is ≥ 1000 nM.

Take `CNC(=O)c1nn(-c2ccc3c(c2)OCCO3)cc(O)c1=O` [Compound 601, 1,4-dihydro-1-(2,3-dihydrobenzo[b][1,4]dioxin-6-yl)-5-hydroxy-N-methyl-4-oxopyridazine-3-carboxamide]: the IC50 was ≥ 1000 nM.

Regarding `CNC(=O)c1nn(CCc2cccc(C(F)(F)F)c2)cc(O)c1=O` [Compound 608], the IC50 is ≥ 1000 nM.

On to `CCN1CCN(c2ccccc2-n2cc(O)c(=O)c(C(=O)NC)n2)CC1` [Compound 615], for which the IC50 was ≥ 1000 nM.

As to `CNC(=O)c1nn(-c2ccccc2N2CCCC(C)(C)C2)cc(O)c1=O` [Compound 616], the IC50 is ≥ 1000 nM.

In the case of `NC(=O)c1nn(-c2ccccc2S(=O)(=O)c2ccccc2)cc(O)c1=O` [Compound 617], the IC50 is ≥ 1000 nM.

These data come from patent US10364226B2, “Pyridazinone compounds and uses thereof” (priority 2013, dated 2019).
